Assay results reported in US20250270648A1, “MOLECULAR SIGNATURE FOR ASSESSING THE RESPONSIVENESS OF CANCER TO MITOCHONDRIA-TARGETED ANTIOXIDANTS” (UNIVERSITÉ CATHOLIQUE DE LOUVAIN, priority 2021, published 2025).

What was measured:
[1] = system: MDA-MB-436 cells; assay: Western blotting (EMT proteins); assay type: cell-based, human; conditions: MitoQ 500 nM, 48 h
Method: For western blotting (WB), whole-protein extracts from MDA-MB-231, SkBr3 and MDA-MB-436 cells were prepared using RIPA buffer (50 mM Tris pH 7.4, 150 mM NaCl, 1% Triton-X-100, 0.05% sodium deoxycholate, 1 mM EDTA, 0.1% SDS, protease inhibitor cocktail and PhosSTOP Phosphatase Inhibitor Cocktail (Roche®)), centrifuged at 10,000×g for 10 min, and quantified using the Bio-Rad® Protein Assay. Proteins (50 μg for MDA-MB-231 and 100 μg for SkBr3 and MDA-MB-436 cells) were loaded into each lane of a 10-12% polyacrylamide gel in the presence of SDS, and were allowed to separate at 120 V for 90 min. The transfer of proteins onto nitrocellulose membranes was performed using an iBlot 2 Dry Blotting System (Thermo Fisher Scientific®) with the 7 min P0 program. Membranes were then blocked using 5% (w/v) powdered milk for 1 h, and incubated overnight at 4° C. with a primary antibody (Table 4).
β-actin served as a loading control. Immunodetection was performed at room temperature for 1 h using as secondary antibodies a horseradish peroxidase-conjugated goat anti-rabbit (Jackson®, Cat #111-035-003) and goat anti-mouse (Jackson®, Cat #115-035-003) in PBS-Tween containing 5% (w/v) milk or BSA. Detection was performed with ECL reagent (Amersham®, Cat #RPN2209), and protein bands were visualized and captured using ECL imager 600 (Amersham®). They were analyzed using the Image J software (Java).

[2] = system: MDA-MB-436 cells; assay: Cell invasion, Boyden chamber; assay type: cell-based, human; conditions: MitoQ 100 nM, 48 h
Method: (§1) Cell chemotaxis was assayed in a 48-well micro-chemotaxis chamber (Neuroprobe® AP48) with polycarbonate porous membrane (8-μm diameter, Neuroprobe® PFB8) coated with 5 μg/mL of fibronectin, according to manufacturer's instructions. Briefly, MDA-MB-231 (20,000 cells/well), SkBr3 (40,000 cells/well) or MDA-MB-436 (80,000 cells/well) cells were seeded in the upper compartment in culture media deprived of FBS, and 0.2% (v/v) FBS-containing medium (for MDA-MB-231 and MDA-MB-436 cells) or 10% (v/v) FBS-containing medium supplemented with 10 ng/mL of human EGF (PrepoTech®, cat #AF-100-15) (for SkBr3 cells) were used as chemo-attractants. Cells were allowed to invade through the membrane overnight. Membranes were then washed with PBS, fixed in methanol, and stained with crystal violet (0.23% v/v). Pictures were acquired under an Axiovert™ 40 CFL microscope (Zeiss®) equipped with a MRC camera (Zeiss®). Quantification was performed using the Image J software.

[3] = system: SkBr3 cells; assay: Cell invasion, Boyden chamber; assay type: cell-based, human; conditions: MitoQ 100 nM, 48 h
Method: as §1

[4] = system: MDA-MB-231 cells; assay: Cell invasion, Boyden chamber; assay type: cell-based, human; conditions: MitoQ 100 nM, 48 h
Method: as §1

[5] = system: SkBr3 spheroids; assay: Spheres / stem-like spheroids; assay type: cell-based, human
Method: (§2) Total mRNA from MDA-MB-231, SkBr3 and MDA-MB-436 cells treated ±MitoQ for 48 h was extracted using the NucleoSpin RNA Kit (Macherey-Nagel®). Total mRNA from primary tumors was extracted with Tri reagent (Molecular Research Center®, Cat #TR118). mRNAs were quantified by the Qubit BR dsRNA assay kit (Thermo Fisher Scientific®), and mRNA integrity was evaluated on an Agilent® 2100 Bioanalyzer with the RNA 6000 nano kit (Agilent®). It was reverse transcribed in complementary DNA using the High-Capacity cDNA Reverse Transcription Kit (Applied Biosystems®, cat #4368814) according to manufacturer's protocol. Complementary DNA (500 ng) was amplified by real time quantitative PCR (RT-qPCR) using the low ROX SYBR Master Mix dTTP Blue (Eurogentec®) and primers listed in Table 5 and Table 6 on a ViiA 7 Real-Time PCR System (Thermo Fisher Scientific®). Gene expression was normalized to β-actin gene expression.
(§3) 3D models were used to obtain an enriched population in stem cells. For that, 10^4 MDA-MB-231, SkBr3 or MDA-MB-436 cancer cells were grown in suspension using 10 cm dishes coated with Polyhema in stem-cell medium: DMEM/F-12 (Gibco®, cat #11320033) supplemented with 100 units/mL penicillin, 100 μg/mL streptomycin, 20 μL/mL B27 (Gibco®, cat #17504044), 20 ng/mL human recombinant epithelial growth factor (EGF) (Peprotech®, cat #AF-100-15), 10 ng/mL basic fibroblast growth factor (bFGF; Peprotech®, cat #100-18B) and 2.5 mg/mL insulin. When spheres reached around 100 μm in diameter, they were washed with PBS and dissociated with accutase (Stem Cell Technology®, cat #07920) in order to have single cells again. At the third passage, dissociated spheres were treated ±MitoQ for 96 h. Images were captured on Axiovert™ 40 CFL microscope equipped with a MRC camera. At the end of the treatment, living cells were collected for RNA extraction.
(§4) Stem like-spheroids were prepared by seeding 5,000 MDA-MB-231, SkBr3 or MDA-MB-436 dissociated spheres/well in ultra-Low attachment 96-well plates (Corning®, cat #7007) in stem cell medium supplemented as described above. After overnight formation, spheroids were treated ±MitoQ for 96 h. Spheroid growth was monitored using an Axio Observer live-cell phase contrast microscope (Zeiss®).

[6] = system: MDA-MB-231 spheroids; assay: Spheres / stem-like spheroids; assay type: cell-based, human
Method: as §2, §3, §4

[7] = system: murine 4T1 breast cancer cells; assay: Cell viability, CellTiter-Glo; assay type: cell-based, mouse; conditions: increasing doses of DXR ±100 nM MitoQ, 48 h
Method: Cells were plated in 96-well plates and left to adhere for 16 hours. In order to avoid reaching full confluence at the endpoint, starting cell count was defined according to doubling time and the duration of the experiment. Following adhesion, cells were treated with the indicated compounds for 48 h, after which staining was done with a CellTiter-Glo Luminescent Cell Viability assay (Promega®, catalogue #G7570), according to supplier's instructions. This method is based on the quantification of intracellular ATP levels.

SMILES: COC1=C(OC)C(=O)C(CCCCCCCCCC[P+](c2ccccc2)(c2ccccc2)c2ccccc2)=C(C)C1=O [MitoQ]
- protein expression of Vimentin, SNAI1, SNAI2 (SLUG), ZEB1 and TWIST1 [1]: decrease
- cell invasion [2]: inhibited
- invasive capability [3]: highly significantly reduced
- invasive capability [4]: highly significantly reduced
- NANOG and SOX2 mRNA expression [5]: decreased
- spheroid formation and spheroid destabilization [5]: Neither inhibition of spheroid formation not spheroid destabilization was seen
- dose sufficient to destabilize already formed spheroids [6]: 100 nM
- mRNA expression of stem cells markers POU5F1/(Oct4), NANOG and SOX2 ([6]; MitoQ 250 nM): significant decrease
- spheroid formation ([6]; MitoQ 250 nM): inhibited
- DXR-induced cell killing [7]: did not interfere
